# Assay: gradient 5% acetonitrile 3 min, to 50% in 2 min, to 85% in 15 min, held 3 min, 100 µL/min
# Settings: column: Zorbax Extend-C18 2.1 x 50 mm; eluents: water / acetonitrile, 0.1% formic acid
# Method in brief: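 Using water and acetonitrile that each contained 0.1% formic acid, mixtures of ~100 pure standards were separated at 100 μL/min on a Zorbax Extend-C18 column (2.1 × 50 mm, 1.8 μm). The HPLC fed a quadrupole time-of-flight mass spectrometer working in positive and negative ionization mode, with dead and dwell volumes of 40 μL and 900 μL. Data were acquired over 3 months. Retention time was read from computationally picked adduct peaks after manual inspection of each.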
row,SMILES,RP-LC retention time [s]
1,CCN(CC)C(=O)C1CCC(=O)N(c2ccc(OC)cc2)C1c1ccc(OC)c(OC)c1 (centres undefined),676
2,COCCn1cc(C(=O)N2CCc3ccccc32)c2nn(-c3ccccc3)c(=O)c-2c1,789
3,O=C(Cn1ccc2c(SCc3ccccc3)nccc21)N1CCN(c2ccc(F)cc2)CC1,786
4,O=C(NCCC1CCCCN1S(=O)(=O)c1ccccc1)C(=O)Nc1ccccc1Cl (centres undefined),1060
5,CC(=O)NCC(=O)N1c2ccccc2CC1c1nc(C(C)C)no1 (centres undefined),724
6,O=C(CN1C(=O)CC(c2cccs2)=Nc2ccccc21)Nc1ccc(F)cc1F,946
7,Cc1cc(N2CCN(c3ccccn3)CC2)n2ncc(-c3ccc(F)cc3)c2n1,732
8,CCNC(=O)c1c2c(nc3ccc(F)cc13)CCC2,613
9,COc1ccccc1CNC(=O)C1CCCN1S(=O)(=O)c1ccc2c(c1)C(C)(C)C(=O)N2C (centres undefined),843
10,CCCNc1cc(N2CCC(CCC(=O)Nc3ccc(OCC)cc3)CC2)ncn1,736
11,COc1ncc(C(=O)NCc2ccc(Br)cc2)cn1,773
12,O=c1ccc(N2CCCN(S(=O)(=O)c3cc(F)ccc3F)CC2)nn1-c1ccccc1,853
13,COc1cccc(-c2noc(C3CCCN3C(=O)Nc3ccc4c(c3)OCCO4)n2)c1 (centres undefined),886
14,Cc1cc(=O)n(CC(=O)N2CCc3ccccc32)c(N2CCCCC2)n1,679
15,Cc1sc2ncn3c(=O)n(CC(=O)N4CCc5ccccc5C4)nc3c2c1C,894
16,COc1ccc(C(=O)N2C[C@@H]3C[C@H](NC(=O)c4cccs4)[C@H]2C3)cc1F,733
17,O=C(CCOc1ccc(F)cc1)N1CCN(Cc2ccccc2)CC1,575
18,COc1ccc(Nc2nc(N3CCN(c4ncccn4)CC3)nc3c2C(=O)CCC3)cc1,1010
19,CC1CCN(CC2CCN(S(=O)(=O)c3ccc(F)c(Cl)c3)CC2)CC1,688
20,CCn1cc(CN2CCC(C(=O)NCc3ccco3)CC2)c2ccccc21,658
21,COc1ccc(-c2ncc3c(n2)CCN(C(=O)c2cccc(Br)c2)C3)cc1,1020
22,CNC(=O)c1c2c(nc3ccccc13)CCC2,542
23,Cc1nc2c(ccc3nc(NC(=O)c4ccc(Cl)s4)sc32)s1,986

row,SMILES,RP-LC retention time [s]
1,Cc1ccc(NC(=O)N2CC(c3nc(C)no3)C3(CCOCC3)C2)c(C)c1 (centres undefined),731
2,COC(=O)c1cccc(NC(=O)NC(C(=O)N2CCc3ccccc32)c2ccccc2)c1 (centres undefined),1030
3,CCOc1ccc(N2CC(c3nc(-c4ccncc4)no3)CC2=O)cc1 (centres undefined),736
4,COc1ccc(C(=O)NC2c3ccccc3-c3ccccc32)cc1OC,861
5,Cc1ccc(C)c(Cn2nc3ccc(S(=O)(=O)N4CCC(C)CC4)cn3c2=O)c1,1130
6,Cn1c(=O)sc2cc(S(=O)(=O)N3CCC(C(=O)NCCC4=CCCCC4)CC3)ccc21,911
7,COc1ccc(OC)c2sc(NC(=O)c3ccc(Cl)s3)nc12,990
8,CCOC(=O)Cc1c(C)nc2c(-c3ccccc3)c(C)nn2c1C,1080
9,COc1ccc(C2CNC(=O)C2)cc1OC1CCCC1 (centres undefined),794
10,CCC(C)N1C(=O)CN(C2CCCCCC2)C(=O)C1c1ccccc1F (centres undefined),1020
11,O=C(O)c1ccc2c(c1)C(=O)N(Nc1ccccc1[N+](=O)[O-])C2=O,953
12,CCn1cc(CCN2CCC(C(=O)NC3CCCCC3)CC2)c2cccnc21,619
13,Cc1nc(C)c(C(=O)Nc2nc(-c3ccc(C)c(C)c3)cs2)s1,1060
14,Cc1cc(C)n(C(C[N+](=O)[O-])c2ccc(Cl)cc2Cl)n1 (centres undefined),1110
15,CCOc1cc2c(cc1OCC)C1C(C(=O)NCc3ccc(C)o3)c3ccccc3C(=O)N1CC2 (centres undefined),894
16,CCOc1ccccc1NC(=O)c1cn2c(n1)CCCC2,657
17,O=C(Nc1cccc(C(F)(F)F)c1)C1CCc2nc(N3CCOCC3)ncc2C1 (centres undefined),900
18,O=C(NC(c1ccccc1)c1nnc(N2CCOCC2)o1)c1ccccc1F (centres undefined),733
19,COc1ccc(CCNC(=O)c2ccc3[nH]c4c(c3c2)CN(C(C)=O)CC4)cc1OC,650
20,Cc1ccc(NC(=O)Nc2cccn3nc(C4CC4)nc23)cc1,912
21,COc1ccc(S(=O)(=O)N(C(C)=O)c2ccccc2/C=C/c2cc[n+]([O-])cc2)cc1,785
22,Cc1nn(-c2ccccc2)c2c1N(C(=O)CCC(=O)NCCc1c[nH]c3ccccc13)CCS2,850
23,Cc1ccc(-c2cc(N3CCN(C(=O)c4ccc(C)c(C)c4)CC3)ncn2)cc1,736

row,SMILES,RP-LC retention time [s]
1,CCOc1ccccc1CNC(=O)C1CCCN(c2nccnc2Sc2ccc(C)cc2)C1 (centres undefined),1190
2,O=C(O)/C=C\C(=O)Nc1nccs1,646
3,Cc1cc(S(=O)(=O)N(C)C2CCc3nn(CC4CC4)c(=O)n3CC2)ccc1Cl (centres undefined),827
4,Cc1nc(-c2ccccc2)nc2c1CC(=O)N2Cc1cccs1,1070
5,CCOC(=O)C(NC(=O)Nc1c(-c2cccc(C)c2)nc2ccccn12)C(C)C (centres undefined),690
6,CCOC(=O)CNC(=O)N1CCN(c2nc3ccccc3n2Cc2ccccc2)CC1,656
7,CCn1ccc(C(=O)Nc2ccccc2C#N)n1,744
8,COc1ccc(N2CCN(C(=O)c3sc4cccc(F)c4c3OC)CC2)cc1,998
9,CCC(=O)N1CCc2cc(C(N)=O)ccc21,613
10,O=C(Cc1nnc(-c2ccc3ncccc3c2)o1)NCc1ccc(F)cc1,677
11,Cc1nn(C)cc1C(=O)N(Cc1ccccc1)c1ccccn1,674
12,O=C(O)c1cc(I)ccc1NC(=O)[C@H](Cc1ccccc1)NCc1ccccc1,863
13,O=C(NCc1ccc(F)cc1)Nc1cccc(-c2ccc(N3CCOCC3)nn2)c1,674
14,CCOC(=O)C1CCN(C(=O)c2csc(Nc3ccc(S(C)(=O)=O)cc3)n2)CC1,620
15,CCCOC(=O)c1cnc2nc(C)ccc2c1NCc1ccc(OC)cc1,750
16,O=c1ccc(-c2ccccc2)nn1Cc1nc(-c2ccc3c(c2)OCO3)no1,959
17,O=C(Cn1cccc1-c1nc(-c2ccc3c(c2)OCO3)no1)NCc1ccco1,906
18,Cc1cc(NC(=O)c2cc(-c3cccs3)[nH]n2)sn1,672
19,Cc1cc(N2CCCCCC2)n2nc(CN3CCN(C(C)C)CC3)nc2n1,555
20,COc1ccc(-c2ccnc3nc(CCc4ccccc4)nn23)c(F)c1,963
21,CCOC(=O)C1=C(c2ccccc2)NC(SCC)=C(C#N)C1c1cccnc1 (centres undefined),650
22,Cc1sc(C)c(S(=O)(=O)NCCc2ccccc2)c1-c1cc(C(F)(F)F)on1,1180
23,CC(C)CN1CCn2cc(C(=O)NCc3cccc(Br)c3)nc2C1,656

row,SMILES,RP-LC retention time [s]
1,CCC(C)NC(=O)c1c2c(cn(-c3ccc(F)cc3)c1=O)C(=O)CC(C)(C)C2 (centres undefined),920
2,O=C(Nc1cccc([N+](=O)[O-])c1)N1CCN(c2ccccc2)CC1,829
3,Cc1ccc(Cl)cc1NC(=O)Cn1ncc2c(N3CCN(c4ccccn4)CC3)ncnc21,630
4,Cc1ccc(C)c(NS(=O)(=O)c2cc3n(c2)CCN(C)C3=O)c1,707
5,Cc1cc(C)c(NS(=O)(=O)c2cc(-c3cc(C(F)(F)F)on3)sc2C)c(C)c1,1230
6,Cc1noc(C)c1S(=O)(=O)N1CCc2nn(Cc3ccccc3)c(=O)n2CC1,776
7,Cc1nnc(-c2ccc3ccn(CC(=O)N4CCN(Cc5ccc6c(c5)OCO6)CC4)c3c2)o1,651
8,O=C(C1CCCN(S(=O)(=O)N2CCOCC2)C1)N1CCN(c2ccc(F)cc2)CC1 (centres undefined),807
9,CCCn1c(=O)c(C)nc2cc(-c3noc(Cc4ccc(OC)c(OC)c4)n3)ccc21,930
10,CC(=O)Nc1ccc(-c2noc(C3CCN(C(=O)c4ccc(Br)cc4)CC3)n2)cc1,841
11,CC1(C(=O)NCc2ccc(F)cc2)CCCN(C(=O)Nc2ccccc2C(F)(F)F)C1 (centres undefined),949
12,O=C(NCc1ccc(F)cc1F)c1c(O)c2cccnc2n(-c2cccc(F)c2)c1=O,1190
13,CCOC(=O)c1c(S(=O)(=O)N2CCC(C(=O)Nc3ccccc3F)CC2)c(C)n(C)c1C,851
14,CCc1noc(C2(NC(=O)c3ccccc3Cl)CCCCC2)n1,936
15,Cc1cccc(NS(=O)(=O)c2cc3n(c2)CCN(C)C3=O)c1C,694
16,CCCN1C(=O)c2cc(S(=O)(=O)Nc3ccc(C)c(F)c3)ccc2Oc2cccnc21,1120
17,Cn1nc(CN2CCCC2)c2c1CCN(S(=O)(=O)c1ccccc1C(F)(F)F)C2,655
18,COc1ccc(-c2noc(C3CCCN3C(=O)Nc3ccccc3Br)n2)cc1 (centres undefined),1070
19,Cc1ccc(CNC(=O)C2CCCN(C(=O)C3Sc4ccccc4NC3=O)C2)cc1 (centres undefined),782
20,O=C(NCCN1CCOCC1)c1csc(N2CCN(c3ccccc3)CC2)n1,650

# — the METLIN SMRT retention time set (Domingo-Almenara et al. 2019)
